Measured values: patent publication US20250197409A1, “BIFUNCTIONAL COMPOUND AND PHARMACEUTICAL COMPOSITION COMPRISING THE BIFUNCTIONAL COMPOUND, AND METHOD FOR TREATING ANDROGEN RECEPTOR RELATED DISEASE BY USING THE SAME” (ANHORN MEDICINES CO., LTD., priority 2022, published 2025)
Where two headings read alike, the source gives them in different places.

Target: T1, androgen receptor (Homo sapiens, UniProt P10275, T878A)
T1 construct: host or cells: LNCaP.FGC
Test: Androgen receptor degradation assay using Western blot analysis
Type: cell-based
Procedure: Cells not treated with any of the above-mentioned compounds are used as a negative control.
The internal loading control GAPDH was detected using a mouse monoclonal antibody (1:5000) (GTX627408, GeneTex International Corp., HsinChu City, Taiwan R.O.C.) and a goat anti-mouse HRP-conjugated secondary antibody (1:5000 dilution) (C04001, Croyez Bioscience Co., Ltd., Taipei City, Taiwan R.O.C.).
AR remaining percentage was determined by the intensity difference of AR signals (each was normalized by the corresponding internal loading control GAPDH) between the protein samples from the untreated cells (100%) and those from the treated cells. “Cpd. #” indicates the compound number hereinabove.
In addition, several compounds were selected to prepare a treatment stock solutions at 100 nM in RPMI medium. The treatment stock solutions were separately serially diluted (10×) with RPMI medium for treating LNCaP.FGC cells seeded with 2×10^5 cells per well in 24-well tissue culture plates. A calibration curve was determined by the serial diluted samples for each compound, and the concentration needed for 50% AR degradation (AR DC50) for each compound was calculated.

[1] = 24 h, LNCaP.FGC cells, 100 nM, 24 hr, normalized to GAPDH, untreated cells = 100%; read-out: Androgen Receptor Remaining (%)
[2] = LNCaP.FGC cells, serial 10x dilutions from 100 nM; read-out: AR DC50 (concentration needed for 50% AR degradation)
[3] = 24 h, read-out: Androgen Receptor Remaining (%), LNCaP.FGC cells, 100 nM, 24 hr, normalized to GAPDH, untreated cells = 100%
[4] = LNCaP.FGC cells, 100 nM, 24 hr, normalized to GAPDH, untreated cells = 100%
[5] = read-out: AR DC50 (concentration needed for 50% AR degradation); LNCaP.FGC cells, serial 10x dilutions from 100 nM

T1 sequence (P10275 whole entry T878A): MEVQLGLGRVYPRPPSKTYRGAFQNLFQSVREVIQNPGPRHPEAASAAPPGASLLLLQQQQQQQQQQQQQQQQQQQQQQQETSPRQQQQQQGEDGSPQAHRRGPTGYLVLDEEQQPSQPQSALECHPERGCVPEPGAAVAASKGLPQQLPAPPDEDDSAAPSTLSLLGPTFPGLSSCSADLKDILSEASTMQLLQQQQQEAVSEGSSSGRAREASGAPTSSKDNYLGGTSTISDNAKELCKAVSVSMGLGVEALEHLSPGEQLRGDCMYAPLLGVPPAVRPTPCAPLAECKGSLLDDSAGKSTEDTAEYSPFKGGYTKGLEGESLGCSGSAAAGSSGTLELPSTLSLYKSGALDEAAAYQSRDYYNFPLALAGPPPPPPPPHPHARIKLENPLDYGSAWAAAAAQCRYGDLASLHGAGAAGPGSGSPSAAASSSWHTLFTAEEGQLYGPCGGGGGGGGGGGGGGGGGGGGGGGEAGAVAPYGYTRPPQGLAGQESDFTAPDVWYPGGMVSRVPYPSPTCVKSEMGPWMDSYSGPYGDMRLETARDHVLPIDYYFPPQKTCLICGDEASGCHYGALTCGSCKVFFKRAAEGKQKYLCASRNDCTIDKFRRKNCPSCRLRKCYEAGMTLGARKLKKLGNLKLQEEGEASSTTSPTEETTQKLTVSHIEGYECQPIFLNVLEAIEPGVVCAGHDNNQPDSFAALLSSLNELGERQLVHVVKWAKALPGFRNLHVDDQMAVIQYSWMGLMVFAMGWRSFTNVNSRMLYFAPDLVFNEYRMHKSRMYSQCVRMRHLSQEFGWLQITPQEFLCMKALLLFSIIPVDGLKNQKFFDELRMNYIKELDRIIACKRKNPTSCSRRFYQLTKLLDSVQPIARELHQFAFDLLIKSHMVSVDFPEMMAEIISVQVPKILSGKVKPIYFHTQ
T1 sequence (Q96SW2 whole entry partner): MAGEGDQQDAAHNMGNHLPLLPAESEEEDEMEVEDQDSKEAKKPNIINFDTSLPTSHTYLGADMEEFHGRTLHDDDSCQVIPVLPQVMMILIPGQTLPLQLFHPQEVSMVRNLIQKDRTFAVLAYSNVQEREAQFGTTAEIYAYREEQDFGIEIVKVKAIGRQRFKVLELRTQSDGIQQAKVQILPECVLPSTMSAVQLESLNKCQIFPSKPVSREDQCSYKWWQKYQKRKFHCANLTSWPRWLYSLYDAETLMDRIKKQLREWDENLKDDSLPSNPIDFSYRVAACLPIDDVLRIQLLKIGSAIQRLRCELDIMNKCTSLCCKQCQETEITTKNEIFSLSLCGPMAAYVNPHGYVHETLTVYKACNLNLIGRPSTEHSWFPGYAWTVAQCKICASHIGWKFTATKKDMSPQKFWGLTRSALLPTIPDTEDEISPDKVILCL

| SMILES | remaining activity at 0.1 µM [1] | remaining activity at 0.1 µM [3] | also measured |
| --- | --- | --- | --- |
| CCn1c2c(c3ccc(OCCC4CCN(c5ccc(C(=O)N[C@H]6CC[C@H](Oc7ccc(C#N)c(Cl)c7)CC6)nn5)CC4)cc31)C(=O)N(C1CCC(=O)NC1=O)C2=O (stereo partly shown) [Compound 2] |  | 56% |  |
| CCn1c2c(c3cc(OCCN4CCN(c5ccc(C(=O)N[C@H]6C(C)(C)[C@H](Oc7ccc(C#N)c(Cl)c7)C6(C)C)cc5)CC4)ccc31)C(=O)N(C1CCC(=O)NC1=O)C2=O (stereo partly shown) [Compound 4] |  | 66% |  |
| CCn1c2c(c3cc(OCCN4CCN(c5ccc(C(=O)N[C@H]6C(C)(C)[C@H](Oc7ccc(C#N)c(Cl)c7)C6(C)C)cn5)CC4)ccc31)C(=O)N(C1CCC(=O)NC1=O)C2=O (stereo partly shown) [Compound 5] |  | 51% |  |
| CC1(C)[C@H](NC(=O)c2ccc(N3CCN(CCOc4ccc5c6c(sc5c4)C(=O)N(C4CCC(=O)NC4=O)C6=O)CC3)cn2)C(C)(C)[C@H]1Oc1ccc(C#N)c(Cl)c1 (stereo partly shown) [Compound 7] |  |  | Androgen Receptor Remaining (%) [4]: 45%; DC50 [2]: 25 to 100 nM |
| Cn1c2c(c3cc(OCCN4CCN(c5ccc(C(=O)N[C@H]6C(C)(C)[C@H](Oc7ccc(C#N)c(Cl)c7)C6(C)C)nc5)CC4)ccc31)C(=O)N(C1CCC(=O)NC1=O)C2=O (stereo partly shown) [Compound 10] | 37% |  | DC50 [2]: 25 to 100 nM |
| CC(C)n1c2c(c3cc(OCCN4CCN(c5ccc(C(=O)N[C@H]6C(C)(C)[C@H](Oc7ccc(C#N)c(Cl)c7)C6(C)C)nc5)CC4)ccc31)C(=O)N(C1CCC(=O)NC1=O)C2=O (stereo partly shown) [Compound 13] |  | 155% |  |
| CC1(C)[C@H](NC(=O)c2ccc(N3CCN(CCCOc4ccc5c6c(sc5c4)C(=O)N(C4CCC(=O)NC4=O)C6=O)CC3)cn2)C(C)(C)[C@H]1Oc1ccc(C#N)c(Cl)c1 (stereo partly shown) [Compound 14] | 70% |  |  |
| Cn1c2c(c3cc(OCCN4CCN(c5ccc(C(=O)N[C@H]6C(C)(C)[C@H](Oc7ccc(C#N)c(Cl)c7)C6(C)C)cc5)CC4)ccc31)C(=O)N(C1CCC(=O)NC1=O)C2=O (stereo partly shown) [Compound 15] | 106% |  |  |
| CC(C)n1c2c(c3cc(OCCN4CCN(c5ccc(C(=O)N[C@H]6C(C)(C)[C@H](Oc7ccc(C#N)c(Cl)c7)C6(C)C)cn5)CC4)ccc31)C(=O)N(C1CCC(=O)NC1=O)C2=O (stereo partly shown) [Compound 16] |  | 96% |  |
| CC(C)n1c2c(c3cc(OCCN4CCN(c5ccc(C(=O)N[C@H]6C(C)(C)[C@H](Oc7ccc(C#N)c(Cl)c7)C6(C)C)cc5)CC4)ccc31)C(=O)N(C1CCC(=O)NC1=O)C2=O (stereo partly shown) [Compound 17] |  | 127% |  |
| CC1(C)[C@H](NC(=O)c2ccc(N3CCN(CCOc4ccc5c6c(sc5c4)C(=O)N(C4CCC(=O)NC4=O)C6=O)CC3)cn2)C(C)(C)[C@H]1Oc1ccc(C#N)c(Cl)c1 (stereo partly shown) [Compound 18] |  |  | Androgen Receptor Remaining (%) [4]: 99% |
| CCn1c2c(c3ccc(OCCCN4CCN(c5ccc(C(=O)N[C@H]6C(C)(C)[C@H](Oc7ccc(C#N)c(Cl)c7)C6(C)C)cn5)CC4)cc31)C(=O)N(C1CCC(=O)NC1=O)C2=O (stereo partly shown) [Compound 20] |  | 63% |  |
| CCn1c2c(c3ccc(OCCCN4CCN(c5ccc(C(=O)N[C@H]6C(C)(C)[C@H](Oc7ccc(C#N)c(Cl)c7)C6(C)C)cc5)CC4)cc31)C(=O)N(C1CCC(=O)NC1=O)C2=O (stereo partly shown) [Compound 21] |  | 92% |  |
| CCCn1c2c(c3ccc(OCCCN4CCN(c5ccc(C(=O)N[C@H]6C(C)(C)[C@H](Oc7ccc(C#N)c(Cl)c7)C6(C)C)cn5)CC4)cc31)C(=O)N(C1CCC(=O)NC1=O)C2=O (stereo partly shown) [Compound 22] |  | 89% |  |
| CCCn1c2c(c3ccc(OCCCN4CCN(c5ccc(C(=O)N[C@H]6C(C)(C)[C@H](Oc7ccc(C#N)c(Cl)c7)C6(C)C)cc5)CC4)cc31)C(=O)N(C1CCC(=O)NC1=O)C2=O (stereo partly shown) [Compound 23] |  | 88% |  |
| Cn1c2c(c3cccc(OCCCN4CCN(c5ccc(C(=O)N[C@H]6C(C)(C)[C@H](Oc7ccc(C#N)c(Cl)c7)C6(C)C)cc5)CC4)c31)C(=O)N(C1CCC(=O)NC1=O)C2=O (stereo partly shown) [Compound 25] | 80% |  |  |
| CCn1c2c(c3ccc(OCCCN4CCN(c5ccc(C(=O)N[C@H]6CC[C@H](Oc7ccc(C#N)c(Cl)c7)CC6)cn5)CC4)cc31)C(=O)N(C1CCC(=O)NC1=O)C2=O (stereo partly shown) [Compound 26] |  | 75% |  |
| CCn1c2c(c3ccc(OCCCN4CCN(c5ccc(C(=O)N[C@H]6CC[C@H](Oc7ccc(C#N)c(Cl)c7)CC6)cc5)CC4)cc31)C(=O)N(C1CCC(=O)NC1=O)C2=O (stereo partly shown) [Compound 27] |  | 107% |  |
| Cn1c2c(c3ccc(OC4CCN(CC5CCN(c6ncc(C(=O)N[C@H]7CC[C@H](Oc8ccc(C#N)c(Cl)c8)CC7)cn6)CC5)CC4)cc31)C(=O)N(C1CCC(=O)NC1=O)C2=O (stereo partly shown) [Compound 28] |  |  | DC50 [2]: 25 to 100 nM |
| CCn1c2c(c3ccc(OCCN4CCN(c5ccc(C(=O)N[C@H]6C(C)(C)[C@H](Oc7ccc(C#N)c(Cl)c7)C6(C)C)cc5)CC4)cc31)C(=O)N(C1CCC(=O)NC1=O)C2=O (stereo partly shown) [Compound 30] |  | 56% |  |
| CCn1c2c(c3ccc(OCCN4CCN(c5ccc(C(=O)N[C@H]6CC[C@H](Oc7ccc(C#N)c(Cl)c7)CC6)cn5)CC4)cc31)C(=O)N(C1CCC(=O)NC1=O)C2=O (stereo partly shown) [Compound 31] |  | 47% | DC50 [5]: 25 to 100 nM |
| CCn1c2c(c3ccc(OCCN4CCN(c5ccc(C(=O)N[C@H]6CC[C@H](Oc7ccc(C#N)c(Cl)c7)CC6)cc5)CC4)cc31)C(=O)N(C1CCC(=O)NC1=O)C2=O (stereo partly shown) [Compound 32] |  | 59% |  |
| CCn1c2c(c3ccc(OCC(C)COC4CCN(c5ccc(C(=O)N[C@H]6CC[C@H](Oc7ccc(C#N)c(Cl)c7)CC6)nn5)CC4)cc31)C(=O)N(C1CCC(=O)NC1=O)C2=O (stereo partly shown) [Compound 36] |  |  | DC50 [5]: 10 to 25 nM |
| CCn1c2c(c3ccc(OCCCN4CCN(c5ccc(C(=O)N[C@H]6C(C)(C)[C@H](Oc7ccc(C#N)c(Cl)c7)C6(C)C)nn5)CC4)cc31)C(=O)N(C1CCC(=O)NC1=O)C2=O (stereo partly shown) [Compound 37] |  | 55% |  |
| CCn1c2c(c3ccc(OCCCN4CCC(c5ncc(C(=O)N[C@H]6CC[C@H](Oc7ccc(C#N)c(Cl)c7)CC6)cn5)CC4)cc31)C(=O)N(C1CCC(=O)NC1=O)C2=O (stereo partly shown) [Compound 38] |  |  | DC50 [5]: 25 to 100 nM |

Second part, led by results:

| remaining activity at 0.1 µM [1] | SMILES | remaining activity at 0.1 µM [3] | also measured |
| --- | --- | --- | --- |
| 47% | Cn1c2c(c3ccc(OCCN4CCN(c5ccc(C(=O)N[C@H]6C(C)(C)[C@H](Oc7ccc(C#N)c(Cl)c7)C6(C)C)cc5)CC4)cc31)C(=O)N(C1CCC(=O)NC1=O)C2=O (stereo partly shown) [Compound 1] |  | DC50 [2]: 10 to 25 nM |
| 32% | Cn1c2c(c3ccc(OCCN4CCN(c5ccc(C(=O)N[C@H]6CC[C@H](Oc7ccc(C#N)c(Cl)c7)CC6)nn5)CC4)cc31)C(=O)N(C1CCC(=O)NC1=O)C2=O (stereo partly shown) [Compound 3] |  | DC50 [2]: 25 to 100 nM |
| 31% | Cn1c2c(c3ccc(OCCN4CCN(c5ccc(C(=O)N[C@H]6C(C)(C)[C@H](Oc7ccc(C#N)c(Cl)c7)C6(C)C)cn5)CC4)cc31)C(=O)N(C1CCC(=O)NC1=O)C2=O (stereo partly shown) [Compound 6] |  | DC50 [2]: 25 to 100 nM |
| 22% | Cn1c2c(c3ccc(OCCCN4CCN(c5ccc(C(=O)N[C@H]6C(C)(C)[C@H](Oc7ccc(C#N)c(Cl)c7)C6(C)C)cn5)CC4)cc31)C(=O)N(C1CCC(=O)NC1=O)C2=O (stereo partly shown) [Compound 8] |  | DC50 [2]: 10 to 25 nM |
| 73% | Cn1c2c(c3ccc(OCCN4CCN(c5ccc(C(=O)N[C@H]6C(C)(C)[C@H](Oc7ccc(C#N)c(Cl)c7)C6(C)C)nc5)CC4)cc31)C(=O)N(C1CCC(=O)NC1=O)C2=O (stereo partly shown) [Compound 9] |  | DC50 [2]: > 100 nM |
| 73% | Cn1c2c(c3ccc(OCCCN4CCN(c5ccc(C(=O)N[C@H]6C(C)(C)[C@H](Oc7ccc(C#N)c(Cl)c7)C6(C)C)nc5)CC4)cc31)C(=O)N(C1CCC(=O)NC1=O)C2=O (stereo partly shown) [Compound 11] |  |  |
| 42% | Cn1c2c(c3ccc(OCCCN4CCN(c5ccc(C(=O)N[C@H]6C(C)(C)[C@H](Oc7ccc(C#N)c(Cl)c7)C6(C)C)cc5)CC4)cc31)C(=O)N(C1CCC(=O)NC1=O)C2=O (stereo partly shown) [Compound 12] |  | DC50 [2]: 25 to 100 nM |
| 73% | Cn1c2c(c3cc(OCCN4CCN(c5ccc(C(=O)N[C@H]6C(C)(C)[C@H](Oc7ccc(C#N)c(Cl)c7)C6(C)C)cn5)CC4)ccc31)C(=O)N(C1CCC(=O)NC1=O)C2=O (stereo partly shown) [Compound 19] |  |  |
| 62% | Cn1c2c(c3cccc(OCCCN4CCN(c5ccc(C(=O)N[C@H]6C(C)(C)[C@H](Oc7ccc(C#N)c(Cl)c7)C6(C)C)cn5)CC4)c31)C(=O)N(C1CCC(=O)NC1=O)C2=O (stereo partly shown) [Compound 24] |  |  |
| 75% | Cn1c2c(c3ccc(OCC4CCN(c5ccc(C(=O)N[C@H]6CC[C@H](Oc7ccc(C#N)c(Cl)c7)CC6)cn5)CC4)cc31)C(=O)N(C1CCC(=O)N(CO)C1=O)C2=O (stereo partly shown) [Compound 34] |  |  |
| 75% | Cn1c2c(c3ccc(OCC4CCN(c5ccc(C(=O)N[C@H]6CC[C@H](Oc7ccc(C#N)c(Cl)c7)CC6)cn5)CC4)cc31)C(=O)N(C1CCC(=O)NC1=O)C2=O (stereo partly shown) [Compound 35] |  |  |
| 16% | Cn1c2c(c3ccc(OCCCN4CCN(c5ccc(C(=O)N[C@H]6CC[C@H](Oc7ccc(C#N)c(Cl)c7)CC6)nn5)CC4)cc31)C(=O)N(C1CCC(=O)NC1=O)C2=O (stereo partly shown) [Compound 39] |  | DC50 [2]: 10 to 25 nM |
| 29% | Cn1c2c(c3ccc(OCCCN4CCN(c5ccc(C(=O)N[C@H]6C(C)(C)[C@H](Oc7ccc(C#N)c(Cl)c7)C6(C)C)nn5)CC4)cc31)C(=O)N(C1CCC(=O)NC1=O)C2=O (stereo partly shown) [Compound 40] |  | DC50 [2]: > 100 nM |
